This passage reports E30 results from patent publication US8586747B2, “3,3-dimethyl tetrahydroquinoline derivatives” (Hoffmann-La Roche Inc., priority 2010, dated 2013).

In the assay the test system is AMP-activated protein kinase (AMPK). Put plainly: ADP Quest assay for AMPK activators. The arrangement: key: fold AMPK activation with vs without activator at 30 µM. The class given is biochemical. Particulars: fold of AMPK activation to phosphorylate SAMS peptide without and with an activator at the concentration of 30 µM. On the procedure:
ADP Quest™ Assay for AMPK Activators
This method evaluates AMP-activated protein kinase (AMPK) activity through detecting the accumulation of ADP product using an ADP Quest kit and determining the E30 values of the small molecular AMPK activators. ADP Quest kit (DiscoveRx, Fremont, Calif.) is stored at −20° C. before use. Before an experiment, thaw the kit (include assay buffer, ADP standard solution, reagent A and reagent B) and equilibrate to room temperature. Dispense the ADP Quest reagents into single-use aliquots and store at −20° C. The compound concentrations typically range from 0 µM to 100 µM by 2-fold dilution. AMP concentrations range from […] to 1 mM as the reference control. In an assay, thaw and equilibrate the assay buffer, reagent A and reagent B to room temperature for 30 minutes prior to use. Mix ATP, SAMS peptide substrate and compound, and place them into the 384-well assay plate. Add reagent A and B based on the assay kit protocol. Incubate the assay plate at room temperature for 30 minutes after addition the mixture followed by the addition of AMPK protein (Invitrogen, CA) to initiate the AMPK phosphorylation reaction. At the same time, reactions with AMPK activator AMP in the absence of enzyme is included as blank control. The reaction fluorescence signal is monitored and recorded on Envision in kinetic mode with the excitation wavelength of 530 nm and emission wavelength of 590 nm. The E30 value, defined as the fold of AMPK activation to phosphorylate SAMS peptide without and with an activator at the concentration of 30 µM, is calculated and analyzed using Prism 5.0.

In turn, `CC(C)(Nc1cccc(C2Nc3ccc(C(=O)NS(C)(=O)=O)cc3CC2(C)C)c1)C(=O)O` (centres unmarked) [Example 28, 2-[3-(6-Methanesulfonylaminocarbonyl-3,3-dimethyl-1,2,3,4-tetrahydro-quinolin-2-yl)-phenylamino]-2-methyl-propionic acid] had an E30 of 2.5.

Molecule `CC(C)(CO)Nc1cccc(C2Nc3ccc(C(=O)O)cc3CC2(C)C)c1` (centres unmarked) [Example 29, 2-[3-(2-Hydroxy-1,1-dimethyl-ethylamino)-phenyl]-3,3-dimethyl-1,2,3,4-tetrahydro-quinoline-6-carboxylic acid] showed an E30 of 1.34.

In turn, `CN(C)C(=O)N(C)c1cccc(C2Nc3ccc(C(=O)O)cc3CC2(C)C)c1` (centres unmarked) [Example 30, 3,3-Dimethyl-2-[3-(trimethyl-ureido)-phenyl]-1,2,3,4-tetrahydro-quinoline-6-carboxylic acid] gave an E30 of 1.45.

With `CN(C(N)=O)c1cccc(C2Nc3ccc(C(=O)O)cc3CC2(C)C)c1` (centres unmarked) [Example 31, 3,3-Dimethyl-2-[3-(1-methyl-ureido)-phenyl]-1,2,3,4-tetrahydro-quinoline-6-carboxylic acid], the E30 is 1.33.

Turning to `CC(C)N(C(N)=O)c1cccc(C2Nc3ccc(C(=O)O)cc3CC2(C)C)c1` (centres unmarked) [Example 32, 2-[3-(1-Isopropyl-ureido)-phenyl]-3,3-dimethyl-1,2,3,4-tetrahydro-quinoline-6-carboxylic acid], the E30 is given as 1.38.

For the molecule `CC1(C)Cc2cc(C(=O)O)ccc2NC1c1cccc(N2C(=O)OCC2(C)C)c1` (centres unmarked) [Example 34, 2-[3-(4,4-Dimethyl-2-oxo-oxazolidine-3-yl)-phenyl]-3,3-dimethyl-1,2,3,4-tetrahydro-quinoline-6-carboxylic acid], the E30 is recorded as 1.15.

The molecule `CC1(C)Cc2cc(C(=O)O)ccc2NC1c1cccc(NC(=O)N2CCCC2)c1` (centres unmarked) [Example 35, 3,3-Dimethyl-2-{3-[(pyrrolidine-1-carbonyl)-amino]-phenyl}-1,2,3,4-tetrahydro-quinoline-6-carboxylic acid] returned an E30 of 1.41.

In the case of `CCN(CC)C(=O)Nc1cccc(C2Nc3ccc(C(=O)O)cc3CC2(C)C)c1` (centres unmarked) [Example 36, 2-[3-(3,3-Diethyl-ureido)-phenyl}-3,3-dimethyl-1,2,3,4-tetrahydro-quinoline-6-carboxylic acid], the E30 stood at 1.37.

`CC(C)(Nc1cccc(C2Nc3ccc(Cl)cc3CC2(C)C)c1)C(=O)O` (centres unmarked) [Example 37, 2-[3-(6-Chloro-3,3-dimethyl-1,2,3,4-tetrahydro-quinolin-2-yl)-phenylamino]-2-methyl-propionic acid] yielded an E30 of 2.19.

For the molecule `CC(C)(Nc1cccc(C2Nc3ccc(C#N)cc3CC2(C)C)c1)C(=O)O` (centres unmarked) [Example 38, 2-[3-(6-Cyano-3,3-dimethyl-1,2,3,4-tetrahydro-quinolin-2-yl)-phenylamino]-2-methyl-propionic acid], the E30 is 2.12.

In turn, `CNC(=O)C(C)(C)Nc1cccc(C2Nc3ccc(C(=O)NS(C)(=O)=O)cc3CC2(C)C)c1` (centres unmarked) [Example 39, 2-[3-(6-Methanesulfonylaminocarbonyl-3,3-dimethyl-1,2,3,4-tetrahydro-quinolin-2-yl)-phenylamino]-2,N-dimethyl-propionamide] yielded an E30 of 1.36.

In the case of `CN(C)C(=O)C(C)(C)Nc1cccc(C2Nc3ccc(C(=O)O)cc3CC2(C)C)c1` (centres unmarked) [Example 40, 2-[3-(1-Dimethylcarbamoyl-1-methyl-ethylamino)-phenyl]-3,3-dimethyl-1,2,3,4-tetrahydro-quinoline-6-carboxylic acid], the E30 stood at 1.35.

The molecule `CC(C)(Nc1cccc(C2Nc3ccc(C(=O)O)cc3CC2(C)C)c1)C(=O)N1CCOCC1` (centres unmarked) [Example 41, 2-[3-(1,1-Dimethyl-2-morpholin-4-yl-2-oxo-ethylamino)-phenyl]-3,3-dimethyl-1,2,3,4-tetrahydro-quinoline-6-carboxylic acid] yielded an E30 of 1.35.

Molecule `CN1CCN(C(=O)C(C)(C)Nc2cccc(C3Nc4ccc(C(=O)O)cc4CC3(C)C)c2)CC1` (centres unmarked) [Example 42, 2-{3-[1,1-Dimethyl-2-(4-methyl-piperazin-1-yl)-2-oxo-ethylamino]-phenyl}-3,3-dimethyl-1,2,3,4-tetrahydro-quinoline-6-carboxylic acid] returned an E30 of 1.31.

For `CC(C)NC(=O)C(C)(C)Nc1cccc(C2Nc3ccc(C(=O)NS(C)(=O)=O)cc3CC2(C)C)c1` (centres unmarked) [Example 43, N-isopropyl-2-[3-(6-methanesulfonylaminocarbonyl-3,3-dimethyl-1,2,3,4-tetrahydro-quinolin-2-yl)-phenylamino]-2-methyl-propionamide], the E30 stood at 1.29.

In turn, `CC1(C)Cc2cc(C(=O)O)ccc2NC1c1cccc(NC2(C(=O)O)CC2)c1` (centres unmarked) [Example 44, 2-[3-(1-Carboxy-cyclopropylamino)-phenyl]-3,3-dimethyl-1,2,3,4-tetrahydro-quinoline-6-carboxylic acid] came in with an E30 of 2.67.

With `CC(C)(Nc1cccc(C2Nc3ccc(C(F)(F)F)cc3CC2(C)C)c1)C(=O)O` (centres unmarked) [Example 45, 2-[3-(3,3-Dimethyl-6-trifluoromethyl-1,2,3,4-tetrahydro-quinolin-2-yl)-phenylamino]-2-methyl-propionic acid], the E30 was found to be 2.41.

On to `CC(C)(C)c1ccc(-c2cncc(C3Nc4ccc(C(=O)O)cc4CC3(C)C)c2)cc1` (centres unmarked) [Example 46, 2-[5-(4-tert-Butyl-phenyl)-pyridin-3-yl]-3,3-dimethyl-1,2,3,4-tetrahydro-quinoline-6-carboxylic acid], for which the E30 was determined as 1.46.

In turn, `CNC(=O)C(C)(C)Nc1cccc(C2Nc3ccc(C(=O)NS(=O)(=O)C4CC4)cc3CC2(C)C)c1` (centres unmarked) [Example 47, 2-[3-(6-Cyclopropanesulfonylaminocarbonyl-3,3-dimethyl-1,2,3,4-tetrahydro-quinolin-2-yl)-phenylamino]-2,N-dimethyl-propionamide] had an E30 of 1.23.

As to `CC(C)(Nc1cccc(C2Nc3ccc(S(C)(=O)=O)cc3CC2(C)C)c1)C(=O)O` (centres unmarked) [Example 48, 2-[3-(6-Methanesulfonyl-3,3-dimethyl-1,2,3,4-tetrahydro-quinolin-2-yl)-phenylamino]-2-methyl-propionic acid], the E30 is 2.62.

With `CC(C)(C)c1ccc(-c2cc(F)cc(C3Nc4ccc(C(=O)NS(C)(=O)=O)cc4CC3(C)C)c2)cc1` (centres unmarked) [Example 49, N-[2-(4′-tert-Butyl-5-fluoro-biphenyl-3-yl)-3,3-dimethyl-1,2,3,4-tetrahydro-quinoline-6-carbonyl]-methanesulfonamide], the E30 is given as 2.25.

Regarding `CN(C)c1cc(F)cc(C2Nc3ccc(C(=O)NS(C)(=O)=O)cc3CC2(C)C)c1` (centres unmarked) [Example 50, N-[2-(3-Dimethylamino-5-fluoro-phenyl)-3,3-dimethyl-1,2,3,4-tetrahydro-quinoline-6-carbonyl]-methanesulfonamide], the E30 turned out to be 1.61.

`CC1(C)Cc2cc(C(=O)O)ccc2NC1c1cc(F)cc(-c2ccc(C#N)cc2)c1` (centres unmarked) [Example 51, 2-(4′-Cyano-5-fluoro-biphenyl-3-yl)-3,3-dimethyl-1,2,3,4-tetrahydro-quinoline-6-carboxylic acid] registered an E30 of 1.42.

`CC1(C)Cc2cc(C(=O)NS(=O)(=O)C3CC3)ccc2NC1c1cc(F)cc(F)c1` (centres unmarked) [Example 52, Cyclopropanesulfonic acid [2-(3,5-difluoro-phenyl)-3,3-dimethyl-1,2,3,4-tetrahydro-quinoline-6-carbonyl]-amide] came in with an E30 of 1.35.

`CC1(C)Cc2cc(C(=O)O)ccc2NC1c1cc(N2CCOCC2)ccc1F` (centres unmarked) [Example 53, 2-(2-Fluoro-5-morpholin-4-yl-phenyl)-3,3-dimethyl-1,2,3,4-tetrahydro-quinoline-6-carboxylic acid] returned an E30 of 1.33.

In turn, `CC1(C)Cc2cc(C(=O)NS(=O)(=O)C3CC3)ccc2NC1c1cc(N2CCOCC2)ccc1F` (centres unmarked) [Example 54, Cyclopropanesulfonic acid [2-(2-fluoro-5-morpholin-4-yl-phenyl)-3,3-dimethyl-1,2,3,4-tetrahydro-quinoline-6-carbonyl]-amide] gave an E30 of 1.28.

As for `CC1(C)Cc2cc(C(=O)O)ccc2NC1c1cc(Cl)cc(N2CCOCC2)c1` (centres unmarked) [Example 55, 2-(3-Chloro-5-morpholin-4-yl-phenyl)-3,3-dimethyl-1,2,3,4-tetrahydro-quinoline-6-carboxylic acid], the E30 was 1.28.

In turn, `CC1(C)Cc2cc(C(=O)NS(=O)(=O)C3CC3)ccc2NC1c1cc(Cl)cc(N2CCOCC2)c1` (centres unmarked) [Example 56, Cyclopropanesulfonic acid [2-(3-chloro-5-morpholin-4-yl-phenyl)-3,3-dimethyl-1,2,3,4-tetrahydro-quinoline-6-carbonyl]-amide] came in with an E30 of 1.26.

For `CC1(C)Cc2cc(C(=O)NS(C)(=O)=O)ccc2NC1c1cc(Cl)cc(N2CCOCC2)c1` (centres unmarked) [Example 57, N-[2-(3-Chloro-5-morpholin-4-yl-phenyl)-3,3-dimethyl-1,2,3,4-tetrahydro-quinoline-6-carbonyl]-methanesulfonamide], the E30 stood at 1.25.
